Consider two compounds from patent publication US20140148476A1, “METHODS FOR TREATING OBESITY AND DISORDERS ASSOCIATED WITH HYPERLIPIDEMIA IN A MAMMAL” (AEGERION PHARMACEUTICALS, INC., priority 2009, published 2014).

The structures appear in SMILES notation. “Also recorded” adds a separate entry of the source. Read-outs that look alike come from different tables or passages of the source.

The subject of one data set is DGAT −/−mice. Nature of the data set: Hepatic triglyceride levels in DGAT +/− and DGAT −/− mice dosed with AEGR-733. It counts as in vivo. The note with it: DGAT −/− mice treated with AEGR-733 compared to DGAT +/− mice treated with AEGR-733; oral gavage for four successive days, chow diet, euthanized approximately 6 hours after the last dose. The protocol:
DGAT +/−mice or DGAT −/−mice (Jackson Laboratory, Me., U.S.A.) were fed a chow diet ad libitum. Mice were dosed by oral gavage for four successive days with AEGR-733 or with vehicle control at about 9:00 AM. AEGR-733 was dissolved in M-pyrol and diluted to appropriate concentration in vehicle. Final vehicle composition was 10% M-pyrol, 80% water, 5% cremophore, and 5% ethanol. Dosing volume was 200 μl. The mice were euthanized approximately 6 hours after the last dose. Blood was obtained at time of sacrifice by orbital eye bleed and plasma was made for determination of total cholesterol (TC), high density lipoprotein cholesterol (HDL-C), triglyceride (TG) and non-HDL-C.

For data set [1] the following is noted: 25 mg/day, some patients, monotherapy, cited from earlier work.
For data set [2] the following is noted: cited from earlier work.
Where [3] appears, read: clinical studies, dosages of 80 mg/day or greater.

In the case of `O=C(NC1CCN(CCCCC2(C(=O)NCC(F)(F)F)c3ccccc3-c3ccccc32)CC1)c1ccccc1-c1ccc(C(F)(F)F)cc1` [AEGR-733, N-(2,2,2-Trifluorethyl)-9-[4-[4-[[[4′-(trifluoromethyl)[1,1′biphenyl]-2-Yl]carbonyl]amino]-1-piperidinyl]butyl]9H-fluorene-9-carboxamide], in the data set on DGAT −/−mice, the hepatic triglyceride levels entry is “significantly reduced; also recorded: significantly lower”. Also, the adverse events entry in data set [1] was “gastrointestinal disorders, abnormalities in liver function and/or hepatic steatosis”; in data set [1] (listed as BMS-201038), “gastrointestinal disturbances, abnormalities in liver function, and hepatic steatosis”.
Turning to `Cc1cc(C)c2c3ccccc3n(Cc3ccc([C@@H](C(=O)N[C@H](CO)c4ccccc4)C4CCCC4)cc3)c2n1` [implitapide, (2S)-2-cyclopentyl-2-[4-[(2,4-dimethyl-9H-pyrido[2,3-b]indol-9-yl)methyl]phenyl]-N-[(1S)-2-hydroxy-1-phenylethyl]ethanamide], the adverse events entry in data set [2] (80 mg/day) is “gastrointestinal disorders, abnormalities in liver function and/or hepatic steatosis”; in data set [2] (160 mg/day) it was “gastrointestinal disorders, abnormalities in liver function and/or hepatic steatosis”; in data set [2] (setting [3]), “gastrointestinal disturbances, abnormalities in liver function, and hepatic steatosis”. Also, in data set [2] (setting [3]), the therapeutic effectiveness result is “therapeutically effective”.
